Laboratory results from article PMC9112895, “Selective Inhibition of Plasmodium falciparum ATPase 6 by Artemisinins and Identification of New Classes of Inhibitors after Expression in Yeast” (Antimicrobial Agents and Chemotherapy, 2022).

Assays:
A623E/S769N PfATP6 = biological target: T1, A623E/S769N PfATP6 (Plasmodium falciparum, UniProt Q08853, A623E/S769N); assay: Yeast whole-cell assay, PfATP6 A623E/S769N double mutant; format: cell-based; details: read-out: IC50 (mean ± SD)
T1 construct: expressed in transfected cells; host or cells: Saccharomyces cerevisiae K667-derived strain
T1 sequence (Q08853 1-1228 A623E/S769N): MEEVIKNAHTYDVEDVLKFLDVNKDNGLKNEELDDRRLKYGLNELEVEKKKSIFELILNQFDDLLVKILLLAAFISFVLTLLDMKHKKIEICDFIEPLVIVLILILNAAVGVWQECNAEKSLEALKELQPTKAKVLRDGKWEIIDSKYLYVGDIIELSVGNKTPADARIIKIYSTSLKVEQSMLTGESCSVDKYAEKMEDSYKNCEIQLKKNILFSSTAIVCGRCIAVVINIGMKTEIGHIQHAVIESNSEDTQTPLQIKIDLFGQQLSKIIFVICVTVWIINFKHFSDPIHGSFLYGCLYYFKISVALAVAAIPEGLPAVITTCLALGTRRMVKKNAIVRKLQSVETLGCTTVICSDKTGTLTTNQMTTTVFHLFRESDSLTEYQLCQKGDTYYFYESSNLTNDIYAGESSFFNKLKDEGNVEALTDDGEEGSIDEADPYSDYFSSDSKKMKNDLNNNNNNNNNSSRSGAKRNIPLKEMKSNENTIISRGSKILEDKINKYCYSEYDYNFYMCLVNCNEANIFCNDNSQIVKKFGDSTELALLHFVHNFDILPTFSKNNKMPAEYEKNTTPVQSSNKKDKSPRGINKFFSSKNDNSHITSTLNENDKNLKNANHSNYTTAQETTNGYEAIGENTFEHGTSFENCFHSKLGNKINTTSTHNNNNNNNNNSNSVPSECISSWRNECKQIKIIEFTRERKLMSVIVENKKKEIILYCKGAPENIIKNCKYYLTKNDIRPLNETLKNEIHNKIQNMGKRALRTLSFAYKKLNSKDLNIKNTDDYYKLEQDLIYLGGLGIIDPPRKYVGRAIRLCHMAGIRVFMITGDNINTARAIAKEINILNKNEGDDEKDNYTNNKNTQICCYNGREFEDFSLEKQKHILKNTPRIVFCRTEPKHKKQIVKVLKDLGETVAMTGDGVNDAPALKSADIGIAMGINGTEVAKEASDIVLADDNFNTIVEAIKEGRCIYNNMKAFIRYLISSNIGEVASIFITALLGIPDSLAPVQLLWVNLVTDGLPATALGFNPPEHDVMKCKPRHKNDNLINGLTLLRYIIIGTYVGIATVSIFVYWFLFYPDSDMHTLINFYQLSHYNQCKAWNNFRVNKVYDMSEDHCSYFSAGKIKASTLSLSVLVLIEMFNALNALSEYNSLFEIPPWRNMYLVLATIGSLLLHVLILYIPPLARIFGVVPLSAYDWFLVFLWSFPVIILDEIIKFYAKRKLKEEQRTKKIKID
Description: Yeast transformations were performed using the method described by Gietz and Schiestl ([48]), and transformants were selected by an uracil auxotrophic marker. Transformations were confirmed by colony PCR. Both K667 and K667Δpdr5::HIS were transformed with the following plasmids: pUGpd plasmid as a vector-only control (derived from pRS316 [49]); br434 plasmid (derived from pRS316 [50]) containing the SERCA1a coding region from rabbit skeletal fast-twitch muscle (pbr434-SERCA1a); and pUGpd containing the yeast-optimized coding region of PfATP6 from Plasmodium falciparum (pUGpd-PfATP6). Site-directed mutagenesis was performed on the SERCA1a coding region to produce the mutation E255L in the protein. Mutations were also introduced into the PfATP6 coding region to produce mutations L263E, A623E, and S769N and the double mutation A623E/S769N ([13]).
The screening assay used here was developed from the protocol used by Pulcini et al. ([13]). […] The optimal calcium concentration was periodically monitored and, if necessary, adjusted using a calcium concentration range of 10 to 30 mM. […] The yeast growth was estimated from the absorbance at 620 nm in a Tecan plate reader. […] The data collected were analyzed using GraphPad Prism v9.0 (GraphPad software, San Diego, CA, U.S.A).

SERCA1a = SERCA1a (Oryctolagus cuniculus, UniProt P04191); assay: In vitro activity assay, SERCA1a (membrane-bound); format: biochemical, rabbit; set-up: containing the SERCA1a coding region from rabbit skeletal fast-twitch muscle; expressed in transfected cells; details: parallel in vitro activity assay, 100 µM (Fig. S1D)
SERCA1a, sequence (P04191 other isoform, or with tags, fused parts or gaps): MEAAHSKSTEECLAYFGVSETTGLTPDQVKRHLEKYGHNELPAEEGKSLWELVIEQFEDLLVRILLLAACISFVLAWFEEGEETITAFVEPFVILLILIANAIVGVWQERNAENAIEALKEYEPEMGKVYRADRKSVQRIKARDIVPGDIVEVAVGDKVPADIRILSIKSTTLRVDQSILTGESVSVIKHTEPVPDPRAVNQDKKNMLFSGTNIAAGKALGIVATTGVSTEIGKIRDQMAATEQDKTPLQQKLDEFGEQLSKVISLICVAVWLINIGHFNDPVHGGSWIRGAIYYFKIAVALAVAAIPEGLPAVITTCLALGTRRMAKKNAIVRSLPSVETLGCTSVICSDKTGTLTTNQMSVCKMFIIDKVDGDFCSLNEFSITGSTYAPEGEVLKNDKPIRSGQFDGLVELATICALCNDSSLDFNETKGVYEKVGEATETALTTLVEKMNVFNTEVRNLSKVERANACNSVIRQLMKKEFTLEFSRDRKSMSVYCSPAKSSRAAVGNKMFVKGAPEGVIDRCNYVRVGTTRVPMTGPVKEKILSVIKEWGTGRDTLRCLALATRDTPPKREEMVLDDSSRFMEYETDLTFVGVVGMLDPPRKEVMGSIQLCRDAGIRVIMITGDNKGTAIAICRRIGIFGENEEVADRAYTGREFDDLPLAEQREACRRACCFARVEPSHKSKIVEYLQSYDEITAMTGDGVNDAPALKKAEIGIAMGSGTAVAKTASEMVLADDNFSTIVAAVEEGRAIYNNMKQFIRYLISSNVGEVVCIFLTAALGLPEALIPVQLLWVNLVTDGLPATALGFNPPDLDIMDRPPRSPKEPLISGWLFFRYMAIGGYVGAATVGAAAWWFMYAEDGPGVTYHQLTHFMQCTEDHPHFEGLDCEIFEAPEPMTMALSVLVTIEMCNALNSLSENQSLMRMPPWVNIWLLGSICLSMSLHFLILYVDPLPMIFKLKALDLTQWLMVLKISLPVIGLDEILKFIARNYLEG
Description: Activity assays were performed as described by Longland et al. ([55]) and LeBel et al. ([56]), except that the reaction mixtures were incubated at 30°C instead of 37°C. […] Then, 5.8 mM ATP was added and incubated for an additional 15 min at 30°C. The reaction was stopped with 0.5 mL 6.5% trichloroacetic acid (TCA) on ice, and the mixture was centrifuged at 4°C for 10 min at 16,000 × g; 0.5 mL of the supernatant was added to 1.5 mL of copper acetate buffer (0.25% copper sulfate pentahydrate, 4.6% sodium acetate trihydrate, dissolved in 2 M acetic acid [pH 4.0]) and mixed by vortex-mixing before the addition of 0.25 mL of 5% ammonium molybdate, followed by 0.25 mL METOL buffer (2% p-methyl-aminophenol sulfate, 5% sodium sulfite). Samples were incubated for 10 min, and the absorbance was measured at 870 nm in a spectrophotometer. The Pi standard was 0.4387 g/100 mL KH2PO4.

CC(=O)C1=C(O)[C@@H]2[C@H]3c4c[nH]c5cccc(c45)C[C@H]3C(C)(C)N2C1=O [CPA, cyclopiazonic acid]
IC50 (A623E/S769N PfATP6): 6.61 µM
inhibition of purified SERCA1a activity (SERCA1a): apparent inhibition
